# Test results: PubChem BioAssay (NCI)
#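 Tested at 5 concentrations; 48 h exposure; 96-well plates; endpoints linearly interpolated, else capped at highest concentration. GI50 marks 50% less growth. TGI denotes the concentration required for complete inhibition of growth.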
# Columns and labels:
# Assay in all cases: NCI tumour cell line growth inhibition, 48 h
# [1] = system: 786-0 renal
# [2] = system: A498 renal
# [3] = system: A549 NSCLC
# [4] = system: BT-549 breast
# [5] = system: CAKI-1 renal
# [6] = system: CCRF-CEM leukemia
# [7] = system: COLO 205 colon
# [8] = system: DU-145 prostate
# [9] = system: HCC-2998 colon
# [10] = system: HCT-116 colon
# [11] = system: HCT-15 colon
# [12] = system: HL-60(TB) leukemia
# [13] = system: HOP-62 NSCLC
# [14] = system: HOP-92 NSCLC
# [15] = system: HS 578T breast
# [16] = system: HT29 colon
# [17] = system: IGROV1 ovarian
# [18] = system: K-562 leukemia
# [19] = system: KM12 colon
# [20] = system: LOX IMVI melanoma
# [21] = system: M14 melanoma
# [22] = system: MALME-3M melanoma
# [23] = system: MCF7 breast
# [24] = system: MDA-MB-231 breast
# [25] = system: MDA-MB-435
# [26] = system: MDA-MB-468 breast
# [27] = system: MOLT-4 leukemia
# [28] = system: NCI-H226 lung
# [29] = system: NCI-H23 lung
# [30] = system: NCI-H460 lung
# [31] = system: NCI-H522 lung
# [32] = system: NCI/ADR-RES ovarian
# [33] = system: OVCAR-3 ovarian
# [34] = system: OVCAR-4 ovarian
# [35] = system: OVCAR-5 ovarian
# [36] = system: OVCAR-8 ovarian
# [37] = system: PC-3 prostate
# [38] = system: RXF 393 renal
# [39] = system: SF-268 CNS
# [40] = system: SF-295 CNS
# [41] = system: SF-539 CNS
# [42] = system: SK-MEL-28 melanoma
# [43] = system: SK-MEL-5 melanoma
# [44] = system: SK-OV-3 ovarian
# [45] = system: SN12C renal
# [46] = system: SNB-75 CNS
# [47] = system: SR leukemia
# [48] = system: SW-620 colon
# [49] = system: TK-10 renal
# [50] = system: U251 CNS
# [51] = system: UACC-257 melanoma
# [52] = system: UACC-62 melanoma
# [53] = system: UO-31 renal
# [54] = system: ACHN renal
# [55] = system: EKVX NSCLC
# [56] = system: RPMI-8226 leukemia
# [57] = system: SNB-19 CNS
# [58] = system: T-47D breast
compound,measurement,setting,value
CC[C@@]1(O)C(=O)OCc2c1cc1n(c2=O)Cc2c-1nc1cc(F)c(C)c3c1c2[C@@H](N)CC3,GI50,[1],< 0.01 µM
same,TGI,[1],< 0.037 µM
same,GI50,[2],< 0.0107 µM
same,TGI,[2],0.187 µM
same,GI50,[3],< 0.01 µM
same,TGI,[3],0.456 µM
same,GI50,[4],< 0.01 µM
same,TGI,[4],0.111 µM
same,GI50,[5],< 0.01 µM
same,TGI,[5],0.0741 µM
same,GI50,[6],< 0.01 µM
same,GI50,[7],0.0393 µM
same,TGI,[7],0.298 µM
same,GI50,[8],< 0.01 µM
same,TGI,[8],> 100 µM
same,GI50,[9],0.0129 µM
same,TGI,[9],0.129 µM
same,GI50,[10],< 0.01 µM
same,TGI,[10],11.5 µM
same,GI50,[11],0.0146 µM
same,TGI,[11],4.89 µM
same,GI50,[12],< 0.01 µM
same,GI50,[13],< 0.01 µM
same,TGI,[13],< 0.0494 µM
same,GI50,[14],< 0.01 µM
same,TGI,[14],0.192 µM
same,GI50,[15],0.221 µM
same,TGI,[15],> 100 µM
same,GI50,[16],< 0.01 µM
same,TGI,[16],1.04 µM
same,GI50,[17],0.0261 µM
same,TGI,[17],1.15 µM
same,GI50,[18],< 0.01 µM
same,TGI,[18],> 100 µM
same,GI50,[19],0.0184 µM
same,TGI,[19],> 100 µM
same,GI50,[20],< 0.01 µM
same,TGI,[20],0.0101 µM
same,GI50,[21],< 0.01 µM
same,TGI,[21],0.0279 µM
same,GI50,[22],0.011 µM
same,TGI,[22],0.247 µM
same,GI50,[23],< 0.01 µM
same,TGI,[23],> 100 µM
same,GI50,[24],0.0285 µM
same,TGI,[24],2.22 µM
same,GI50,[25],< 0.01 µM
same,TGI,[25],0.625 µM
same,GI50,[26],< 0.01 µM
same,TGI,[26],< 0.01 µM
same,GI50,[27],< 0.01 µM
same,GI50,[28],< 0.01 µM
same,TGI,[28],< 0.0197 µM
same,GI50,[29],< 0.01 µM
same,TGI,[29],< 0.01 µM
same,GI50,[30],< 0.01 µM
same,TGI,[30],0.434 µM
same,GI50,[31],< 0.01 µM
same,TGI,[31],0.0379 µM
same,GI50,[32],< 0.01 µM
same,TGI,[32],0.0213 µM
same,GI50,[33],0.0368 µM
same,TGI,[33],0.635 µM
same,GI50,[34],0.0325 µM
same,TGI,[34],> 100 µM
same,GI50,[35],< 0.0124 µM
same,TGI,[35],0.801 µM
same,GI50,[36],< 0.01 µM
same,TGI,[36],0.116 µM
same,GI50,[37],0.0206 µM
same,TGI,[37],> 100 µM
same,GI50,[38],< 0.01 µM
same,TGI,[38],< 0.0135 µM
same,GI50,[39],< 0.01 µM
same,TGI,[39],> 100 µM
same,GI50,[40],< 0.01 µM
same,TGI,[40],0.0425 µM
same,GI50,[41],< 0.01 µM
same,TGI,[41],< 0.01 µM
same,GI50,[42],0.111 µM
same,TGI,[42],> 100 µM
same,GI50,[43],< 0.01 µM
same,TGI,[43],< 0.01 µM
same,GI50,[44],< 0.01 µM
same,TGI,[44],0.135 µM
same,GI50,[45],< 0.01 µM
same,TGI,[45],0.145 µM
same,GI50,[46],< 0.01 µM
same,TGI,[46],0.175 µM
same,GI50,[47],< 0.01 µM
same,TGI,[47],> 100 µM
same,GI50,[48],< 0.01 µM
same,TGI,[48],13.1 µM
same,GI50,[49],0.0611 µM
same,TGI,[49],3.18 µM
same,GI50,[50],< 0.01 µM
same,TGI,[50],0.102 µM
same,GI50,[51],0.0103 µM
same,TGI,[51],0.166 µM
same,GI50,[52],< 0.01 µM
same,TGI,[52],0.0146 µM
same,GI50,[53],< 0.01 µM
same,TGI,[53],0.0481 µM
N#Cc1c(-c2ccc(F)cc2)nc(SCc2ccccc2)nc1N1CCNCC1,GI50,[1],11 µM
same,TGI,[1],25.4 µM
same,GI50,[2],13.1 µM
same,TGI,[2],27.3 µM
same,GI50,[3],8.1 µM
same,TGI,[3],21.5 µM
same,GI50,[54],14 µM
same,TGI,[54],27.5 µM
same,GI50,[4],13 µM
same,TGI,[4],26.4 µM
same,GI50,[5],16 µM
same,TGI,[5],29.7 µM
same,GI50,[6],13.9 µM
same,TGI,[6],31 µM
same,GI50,[7],1.66 µM
same,TGI,[7],3.17 µM
same,GI50,[8],15 µM
same,TGI,[8],29 µM
same,GI50,[55],12 µM
same,TGI,[55],24.8 µM
same,GI50,[9],1.76 µM
same,TGI,[9],3.22 µM
same,GI50,[10],3.51 µM
same,TGI,[10],11.6 µM
same,GI50,[11],5.05 µM
same,TGI,[11],17.5 µM
same,GI50,[12],4.5 µM
same,TGI,[12],17.3 µM
same,GI50,[13],13.2 µM
same,TGI,[13],28.1 µM
same,GI50,[14],4.2 µM
same,TGI,[14],18.1 µM
same,GI50,[15],14.1 µM
same,TGI,[15],32 µM
same,GI50,[16],3.3 µM
same,TGI,[16],10.5 µM
same,GI50,[17],14.7 µM
same,TGI,[17],28.9 µM
same,GI50,[18],2.21 µM
same,TGI,[18],5.42 µM
same,GI50,[19],17.1 µM
same,TGI,[19],32.8 µM
same,GI50,[20],1.71 µM
same,TGI,[20],3.33 µM
same,GI50,[21],12 µM
same,TGI,[21],24.8 µM
same,GI50,[22],14.1 µM
same,TGI,[22],28.2 µM
same,GI50,[23],3.94 µM
same,TGI,[23],15.3 µM
same,GI50,[25],16.9 µM
same,TGI,[25],31.5 µM
same,GI50,[26],6.71 µM
same,TGI,[26],21.3 µM
same,GI50,[27],7.07 µM
same,TGI,[27],21.2 µM
same,GI50,[28],13.8 µM
same,TGI,[28],33.4 µM
same,GI50,[29],15.1 µM
same,TGI,[29],29.3 µM
same,GI50,[30],9.2 µM
same,TGI,[30],22.9 µM
same,GI50,[31],11.3 µM
same,TGI,[31],25.1 µM
same,GI50,[32],11.7 µM
same,TGI,[32],27.4 µM
same,GI50,[33],14.3 µM
same,TGI,[33],29.1 µM
same,GI50,[34],15.7 µM
same,TGI,[34],34.2 µM
same,GI50,[35],14.1 µM
same,TGI,[35],27.6 µM
same,GI50,[36],6.21 µM
same,TGI,[36],21.8 µM
same,GI50,[37],11.8 µM
same,TGI,[37],25.8 µM
same,GI50,[56],3.99 µM
same,TGI,[56],17.5 µM
same,GI50,[38],3.14 µM
same,TGI,[38],14.8 µM
same,GI50,[39],12.9 µM
same,TGI,[39],29.1 µM
same,GI50,[40],15.8 µM
same,TGI,[40],30.1 µM
same,GI50,[41],15.7 µM
same,TGI,[41],29.4 µM
same,GI50,[42],16.3 µM
same,TGI,[42],30.3 µM
same,GI50,[43],15.7 µM
same,TGI,[43],29.2 µM
same,GI50,[44],16 µM
same,TGI,[44],29.5 µM
same,GI50,[45],13.8 µM
same,TGI,[45],27.2 µM
same,GI50,[57],14.2 µM
same,TGI,[57],29.3 µM
same,GI50,[47],1.92 µM
same,TGI,[47],4.61 µM
same,GI50,[48],3.38 µM
same,TGI,[48],13.1 µM
same,GI50,[58],10.1 µM
same,TGI,[58],24.8 µM
same,GI50,[49],14.5 µM
same,TGI,[49],28.4 µM
same,GI50,[50],4.36 µM
same,TGI,[50],16.1 µM
same,GI50,[51],13.1 µM
same,TGI,[51],26.2 µM
same,GI50,[52],14.4 µM
same,TGI,[52],28.2 µM
